According to patent US20190225643A1, “NOVEL NUCLEOSIDE ANALOGS AND USE THEREOF IN THERAPEUTIC TREATMENT” (CORNELL UNIVERSITY, priority 2016, published 2019):

Experiments:
[1] = tested on: KSHV latent proteins LANA, vFLIP and vCyclin; assay: Western blot of KSHV latent proteins; type: cell-based
Method: (§1) For all intracellular signaling studies, cell lines were plated at 2*10^5 cells/mL or at indicated densities in RPMI-1640 with 20% FBS, and treated with the stated concentrations of 6-ETI, from 6 to 48 hours. Immunoblotting was performed using the following antibodies: PARP (BD Pharmingen, 556494), LC3B (Cell Signaling, 2775S), phospho-l-listone H2AX.X S139 (Cell Signaling, 2577S), GAPDH (Gene Tex, GTX100118), ADK (Santa Cruz, sc-365470) vFLIP 6/14 antibody was a gift from Mary Collins at University College of London, vCyclin (Abcam, ab12208), LANA (Advanced Biotechnologies, 13-210-100), β-Actin (Sigma A5316), p65 (Cell Signaling C22B4, p50 (Cell Signaling 3035), October-1 (Cell Signaling 4428), p-IκBα (Santa Cruz 3-9 sc-8404), IκBα (Santa Cruz C-21 sc-371), pIKKα/β (ser 176)(Santa Cruz sc-21661), IKKα (Santa Cruz H-744 sc-7218).

[2] = tested on: p65/p50 binding to the NF-κB response element in BC3 PEL cell line; assay: EMSA of NF-κB binding in BC3 cells; type: cell-based, human
Method: BC3 or LCL9001 cells were plated at 5*10^5 cells/ml, and treated with the hit compounds at 25 μM or with NSC39368 at 5, 10, 25 and 50 μM for 24 hours. Nuclear extracts were obtained as previously described (Keller S. A. et al., Blood. 2000 96(7):2537-42), and electrophoretic mobility shift assays (EMSAs) were performed using an NF-κB-specific oligonucleotide probe.

BC3 (PEL) = assay: cells; type: cell-based; details: Homo sapiens; 48 hours, CellTiter-Glo; read-out: LC50 BC3 (PEL)
Method: (§2) Cell viability assays were performed by plating log-phase cells in RPMI complete media with 20% FBS at 1*10^5 cells/mL, with concentrations of 6-ETI or phospho-6-ETI ranging from 0.1 nM to 100 μM. ATP content at 24, 48 and 72 hours post-treatment was measured by the CellTiter-Glo kit (Promega, Madison, Wis.), or by Trypan blue assay as indicated. The LC50 for 6-ETI in each cell line was determined using online EC50 software at changbioscience.com or using GraphPad Prism to determine the LC50 for 6-ETI, phospho-6-ETI and nucleoside analogs in MM cell lines and primary MM patient samples.

IBL-1 (EBV+ DLBCL) = assay: cells; type: cell-based; details: Homo sapiens, 48 h, read-out: LC50 IBL-1 (DLBCL)
Method: as §2

U266 (MM) = assay: cells; type: cell-based; details: Homo sapiens, U-266, 48 h, read-out: LC50 U266 (MM) in nM
Method: as §2

PEL cells (BC1, BC3) = assay: Immunoblotting of PARP cleavage, LC3B cleavage and γH2AX in PEL cells; type: cell-based, human
Method: as §1

[3] = tested on: Primary CD138+ human myeloma cells; assay: Ex vivo viability of primary multiple myeloma samples; type: cell-based; details: 24 hours
Method: as §2
Bone marrow specimens were obtained from multiple myeloma patients at the New York-Presbyterian Hospital under informed consent as part of an Institutional Review Board-approved study in accordance with the Declaration of Helsinki. Primary CD138^+ human myelorna cells were isolated by Ficoll-Hypaque density gradient centrifugation. The CD138^+ bone marrow myeloma cells were then enriched from this fraction to >95% purity using an automated MACS CD138 MicroBeads system (Miltenyi Biotechnology, Inc., Auburn, Calif.). […] PBLs were harvested from normal blood using Ficoll-Paque (Sigma-Aldrich) as described previously. Cells were plated in RPMI-1640 supplemented with 20% FBS.

[4] = tested on: NF-κB activity in BC3NFRen-luc#3 cells; assay: NF-κB luciferase reporter assay; type: cell-based, human; details: as early as 6 hours post-treatment
From the text: Exponentially growing BC3-derived reporter cell lines (BC3NFκB-luc#6 or BC3NFRen-luc#3), and unrelated luciferase expressing U251-pGL3 cells were resuspended in respective RPMI-1640 complete media, and plated in a 96-well tissue culture microplate at 7.5*10^5 cells/mL and 3*10^5 cells/mL, respectively, in the presence or absence of varying concentrations of test compounds. […]

[5] = tested on: IBL1, LY7 and BCKN1 cells; assay: Viability assay at higher plating density; type: cell-based; details: 5*10^5 cells/mL versus original assay conditions
Method: as §2, with “Cell viability assays were performed by plating log-phase cells in RPMI complete media with 20% FBS at 1*10^5 cells/mL, with concentrations of 6-ETI or phospho-6-ETI ranging from 0.1 nM to 100 μM.” left out

## CCSc1ncnc2c1ncn2[C@@H]1O[C@H](CO)C(O)[C@@H]1O (stereo partly drawn) [Compound 6-ETI, 6-ethylthioinosine]
[1]
  latent viral protein expression: no reduction was seen in latent viral protein expression
[2]; BC3, 24 hours
  inhibition of active heterodimer p65/p50 binding to the NF-κB response element: effectively inhibited
[2]; PEL cells
  doses effective in inhibiting NF-κB in PELs: 10 to 50 µM
BC3 (PEL)
  CC50: 49.8 nM
IBL-1 (EBV+ DLBCL)
  CC50: > 100000 nM
U266 (MM)
  CC50: 437 nM
PEL cells (BC1, BC3); 1 μM and 10 μM, 24 hours
  DNA damage marker γH2AX: appearance of γH2AX
PEL cells (BC1, BC3); 1 μM, 24 hr
  autophagy (LC3B cleavage product): some induction of autophagy
PEL cells (BC1, BC3); BC1 and BC3, 1 μM, 24 hrs
  apoptosis (PARP cleavage): small but observable increases in apoptosis
[3]
  sensitivity ex vivo: showed sensitivity
[4]
  NF-κB reporter activity: inhibited NF-κB activity
[5]
  LC50 change at higher cell density: decreased strikingly
